Experiments:
[1] = target: FGF-2 (Homo sapiens, UniProt P09038); test: Growth factor binding assay (SPR solution affinity), FGF-2; settings: SPR, HBS-EP buffer containing 0.3 M NaCl, 25° C.; read-out: Kd FGF-2
How it was run: (§1)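 Kd measured by SPR solution affinity: fixed growth factor with varying ligand competing for heparin-coated sensorchip, 25 °C. Buffer HBS-EP pH 7.4 (150 mM NaCl) for FGF-1 and VEGF; FGF-2 with 0.3 M NaCl. Duplicate values averaged.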

[2] = target: T1, VEGF (Homo sapiens, UniProt P15692); test: Growth factor binding assay (SPR solution affinity), VEGF; settings: HBS-EP buffer, 25° C.
T1 sequence (P15692 207-395): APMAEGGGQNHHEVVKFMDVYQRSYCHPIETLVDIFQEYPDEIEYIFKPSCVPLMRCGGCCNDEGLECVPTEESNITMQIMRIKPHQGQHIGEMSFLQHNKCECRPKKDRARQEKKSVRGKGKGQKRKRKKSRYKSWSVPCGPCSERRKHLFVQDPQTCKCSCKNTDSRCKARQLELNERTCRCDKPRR
How it was run: as §1

[3] = assay type: in vivo, Sprague-Dawley rats; settings: Sprague-Dawley rats, radiolabelled compound in plasma
Method: Adult male Sprague-Dawley (SD) rats (approx 300 g) were used for the experiment. Femoral artery cannulae was implanted and exteriorised following isoflurane anaesthesia. Jugular vein artery cannulae was implanted and exteriorized. […]. Blood samples (˜325 μL) were collected into sample tubes containing the anticoagulant sodium citrate from femoral artery catheter pre-dose and at 5, 20 minutes and 2, 5, 8, 12, 24, and 48 hours post-dose, and kept at reduced temperature (approx 4° C.) until centrifuged. Blood samples were centrifuged, plasma separated and 50 μL aliquot of the plasma transferred to a scintillation vial for counting. At the end of the experimental period animals were euthanased via a lethal overdose of pentobarbital. The level of radioactivity in the plasma was measured following mixing of samples with Packard Ultima Gold liquid scintillation counting cocktail. Counting was conducted on a Beckman liquid scintillation counter (LS6500) or Packard TriCarb liquid scintillation counter for 10 minutes per sample. Results (DPM, calculated from an in-built quench curve in the counter) were corrected for background prior to any calculations. The pharmacokinetic parameters were calculated using PK Solutions 2.0 software (Summit Research Services, Ohio, U.S.A.) and are summarised in Table 11 below.

[4] = test system: normal pooled human plasma; test: Anticoagulant activity, Heptest; settings: 0.1 mg/mL in normal pooled human plasma
[5] = test system: pooled normal human plasma; test: Anticoagulant activity, APTT; settings: 0.1 mg/mL in normal pooled human plasma
Method: APTT measurements were performed on a STAGO STA-Compact Coagulation Analyser using standard protocols according to the manufacturer's instructions. Unfractionated heparin (UFH) was used as a control.

FGF-2, sequence (P09038 143-288, species assumed): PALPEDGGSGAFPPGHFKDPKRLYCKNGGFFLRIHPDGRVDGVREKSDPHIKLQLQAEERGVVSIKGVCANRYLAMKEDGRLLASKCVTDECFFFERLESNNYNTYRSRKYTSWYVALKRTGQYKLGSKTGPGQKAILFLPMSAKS

CC(C)CCCC(C)C1CCC2C3CCC4CC(OC5OC(COS(=O)(=O)O)C(OC6OC(COS(=O)(=O)O)C(OC7OC(COS(=O)(=O)O)C(OC8OC(COS(=O)(=O)O)C(OS(=O)(=O)O)C(OS(=O)(=O)O)C8OS(=O)(=O)O)C(OS(=O)(=O)O)C7OS(=O)(=O)O)C(OS(=O)(=O)O)C6OS(=O)(=O)O)C(OS(=O)(=O)O)C5OS(=O)(=O)O)CCC4(C)C3CCC12C [Compound 65, 3β-Cholestanyl 2,3,4,6-tetra-O-sodium sulfonato-α-D-glucopyranosyl-(1→4)-2,3,6-tri-O-sodium sulfonato-α-D-glucopyranosyl-(1→4)-2,3,6-tri-O-sodium sulfonato-α-D-glucopyranosyl-(1→4)-2,3,6-tri-O-sodium sulfonato-β-D-glucopyranoside]
Kd [1]: 390 ± 80 nM
Kd [2]: 28.9 ± 2.3 nM
Half-life (iv) ([3]; intra venous): 17.3 h
Half-life (sc) ([3]; subcutaneous): 21.3 h
Heptest [4]: 28.6 s
APTT [5]: 71.9 s

Reference: US20150065440A1 (Progen Pharmaceuticals Limited, priority 2007, published 2015)
